Measurements: patent publication US20230414619A1 (priority 2020, published 2023)

What was measured:
[1] = tested on: PBMCs from a COVID-19 patient; format: cell-based, human
SARS-CoV-2 = conditions: emetine inhibition of Rps14; pladienolide inhibition of SF3B1; cited from earlier work

## COc1cc2c(NC3CCN(C(C)C)CC3)nc(N3CCC(F)(F)CC3)nc2cc1OCCCN1CCCC1 [UNC0642]
[1]
  differentially expressed host factors necessary for SARS-CoV-2 pathogenesis (siRNA and CRISPR screens): 8
  differentially expressed host interactors of SARS-CoV-2 viral RNA: 2
  differentially expressed host proteins that interact with SARS-CoV-1/2 and MERS encoded proteins: 129
  downregulated proteins following treatment: 151
  upregulated proteins following treatment: 141
[1]; of 5566 proteins quantified, ANOVA P value<0.05, 0-24 h treatment
  proteins differentially expressed following treatment: 292
[1]; out of 292, 78 upregulated, 74 downregulated
  differentially expressed proteins whose turnover is G9a dependent in ET macrophages: 152

## CC[C@H]1CN2CCc3cc(OC)c(OC)cc3[C@@H]2C[C@@H]1C[C@H]1NCCc2cc(OC)c(OC)cc21 [emetine]
SARS-CoV-2
  SARS-CoV-2 replication: significantly reduced

## CC[C@H](O)[C@@H](C)[C@H]1O[C@@H]1C[C@H](C)/C=C/C=C(\C)[C@H]1OC(=O)C[C@H](O)CC[C@@](C)(O)[C@@H](OC(C)=O)/C=C/[C@@H]1C [pladienolide]
SARS-CoV-2
  SARS-CoV-2 replication: significantly reduced
